The values that follow come from patent US12473324B2, “Triazine-based amphiphilic compound and use thereof” (INDUSTRY-UNIVERSITY COOPERATION FOUNDATION HANYANG …, priority 2019, dated 2025).

Structures are written as SMILES.

For data set [1], the target named is T1, Salmonella typhimurium melibiose permease (MelBSt) (Salmonella typhimurium, UniProt P30878).
T1 construct: made in house; host or cells: E. coli DW2 cells
Briefly: MelB extraction and thermal solubilization stability (SDS-PAGE, Western blotting). The class given is biochemical. To be noted: 1.5 wt % detergent, 90 minutes. Background: A western blot detects proteins with antibodies after separation by electrophoresis.
Experimental: Experiments were performed to measure the structural stability of Salmonella typhimurium melibiose permease (MelBSt) protein by TSMs, TTGs and TEMs. After the MelB protein was extracted from the membrane using TSMs, TTGs, TEMs or DDM, the amount and structure of the extracted protein were analyzed by SDS-PAGE and Western blotting. The concentration of the amphiphilic compound used was 1.5 wt %, the protein was extracted at 0° C. for 90 minutes and then the extracted protein was incubated at three high temperatures (45, 55, and 65° C.) for an additional 90 minutes. By measuring the amount of protein remaining in a dissolved state in an aqueous solution of the extracted protein and the heat-treated protein, we tried to evaluate the performance of both the protein extraction efficiency and stabilization ability of the compound at the same time. […]
Specifically, Salmonella typhimurium melibiose permease (MelBSt) having a 10-His tag at the C-terminus was expressed in E. coli DW2 cells (βmelB and βlacZY) using a plasmid pK95βAHB/WT MelBSt/CH10. […] MelBSt was measured by an ImageQuant LAS 4000 Biomolecular Imager (GE Health Care Lifer Science) using a SuperSignal West Pico chemiluminescent substrate.

A short description of data set [2]: Solubility of detergent (Table 1). The data set is classed as physicochemical.
A short description of data set [3]: Hydrodynamic radius (Rh) of micelles by dynamic light scattering (DLS). The data set is classed as physicochemical. To be noted: 1.0 wt % detergent. On the procedure:
A method of measuring the radius of micelle is not particularly limited, but a method widely known in the art may be used, and for example, the radius of micelle may be measured using a dynamic light scattering (DLS) experiment.
(§1) Specifically, the critical micelle concentrations (CMCs) were measured using a fluorescent dye, diphenylhexatriene (DPH), and the hydrodynamic radii (Rh) of micelles formed by each preparation (1.0 wt %) were determined by a dynamic light scattering (DLS) experiment. The measured results are shown in Table 1 compared to DDM which is an existing amphiphilic molecule (detergent).

Data set [4] concerns BOR1-GFP fusion protein. Briefly: AtBOR1 thermal stability, fluorescence size exclusion chromatography (FSEC). To be noted: 1% detergent, heated at 47° C. for 10 minutes.
Experimental: Fluorescence size exclusion chromatography (FSEC): BOR1 of Arabidopsis thaliana was expressed in Saccharomyces cerevisiae FGY217 cells as a fusion protein having a C-terminal GFP tag. The cells were grown in a URA medium supplemented with 0.1% glucose. Protein expression was induced by adding 2% galactose, and then the cells were cultured at 20° C. for 18 hours as previously described. The cells were collected and used to prepare a membrane. The membrane including the BOR1-GFP fusion protein was diluted as follows. […] Samples were cultured while shaking at 4° C. for 1 hour, and then insoluble materials were removed by centrifugation at 14,000 g and 4° C. for 1 hour. A supernatant including the solubilized protein sample was heated at 47° C. for 10 minutes. After additional centrifugation to remove large aggregates, a 200 μl aliquot of the sample was injected into a Superose 6 10/300 column equilibrated with 20 mm Tris (pH 7.5), 150 mm NaCl and 0.03% DDM. The GFP fluorescence of each fraction was read using an excitation wavelength of 470 nm and an emission wavelength of 512 nm.
For data set [5], the system named is leucine transporter (LeuT). The experiment in a line: LeuT structural stability: [3H]-Leu binding by scintillation proximity assay (SPA). The data set is classed as biochemical, Aquifex aeolicus. The note with it: CMC+0.04 wt % or CMC+0.2 wt %, room temperature, 13-day incubation, [3H]-Leu SPA. How it is done: Experiments were performed to measure the structural stability of the LeuT protein by TSMs, TTGs and TEMs. Each amphiphilic compound was used at a concentration of (a) CMC+0.04 wt % or (b) CMC+0.2 wt %, and the substrate binding properties of LeuT were measured using [^3H]-Leu via scintillation proximity assay (SPA). The measurement was performed at regular intervals over the course of a 13-day and 12-day incubation at room temperature, respectively.
Specifically, a wild-type leucine transporter (LeuT) derived from the thermophilic bacterium Aquifex aeolicus was purified by a previously described method (Nature 1998, 392, 353-358 by G. Deckert et al.). LeuT was expressed in E. coli C41 (DE3) transformed with pET16b encoding the C-terminal 8×His-tagged transporter (expression plasmids were provided from Dr E. Gouaux, Vollum Institute, Portland, Oregon, USA). In summary, after a bacterial membrane was isolated and solubilized in 1 wt % DDM, the protein was bound to Ni^2+-NTA resin (Life Technologies, Denmark), and eluted in 20 mM Tris-HCl (pH 8.0), 1 mM NaCl, 199 mM KCl, 0.05% (w/v) DDM and 300 mM imidazole. Then, the purified LeuT (0.5 mg/ml) was diluted with buffers supplemented with TSMs, TTGs, TEMs or DDM at a final concentration of CMC+0.04% (w/v) or CMC+0.2% (w/v) except for DDM and imidazole in the equivalent buffer described above. Protein samples were incubated at room temperature for 13 days, centrifuged at a specified time, and protein properties were confirmed by measuring [^3H]-Leucine binding ability using SPA. SPA was performed with 5 μL of each protein sample in a buffer containing 450 mM NaCl and each of TSMs and TEMs (or DDM). The SPA reaction was performed in the presence of 20 nM [^3H]-Leucine and 1.25 mg/ml copper chelate (His-Tag) YSi beads (PerkinElmer, Denmark). Overall [^3H]-Leucine coupling to each sample was measured using a MicroBeta liquid scintillation counter (Perkin Elmer).
A general note: Scintillation proximity formats need no separation of bound from free tracer.

Data set [6] can be described thus: Critical micelle concentration (CMC) by fluorescent dye diphenylhexatriene (DPH). The data set is classed as physicochemical. The note with it: DPH fluorescence. How it is done: A method of measuring the CMC is not particularly limited, but a method widely known in the art may be used, and for example, the CMC may be measured by a fluorescent staining method using diphenylhexatriene (DPH).
as §1

Data set [7] addresses T2, μ-opioid receptor (MOR) (Mus musculus, UniProt P42866). The note with it: LMNG not among the compounds of the described test; cited from earlier work.
In data set [8] the target is T2, μ-opioid receptor (MOR). Briefly: MOR thermal stability test (CPM dye, melting point Tm). The data set is classed as biochemical. The note with it: 0.5 wt % compound, CPM fluorescence, 20° C. to 65° C. How it is done: An N-[4-(7-diethylamino-4-methyl-3-coumarinyl)phenyl]maleimide (CPM) dye dissolved in DMSO (3 mg/ml) was diluted 40× in a buffer including 20 mM HEPES pH 7.5 and 150 mM NaCl. […] After 1 hour at room temperature, a compound was prepared at a final concentration of 0.5 wt % by diluting the receptor solution 2× in 20 mM HEPES pH 7.5, 150 mM NaCl. After […] of the diluted CPM dye was added thereto, the receptor stability of different compounds was measured by recording the fluorescence spectra (excitation 387 nm) every 5° C. from 20° C. to 65° C. while culturing at each temperature for 2 minutes. The melting point (Tm) was calculated by plotting the read value at 470 nm and fitting a non-linear regression curve using GraphPad Prism.

Data set [9] has as its target AtBOR1 (Arabidopsis thaliana, UniProt Q8VYR7). The experiment in a line: AtBOR1 thermal denaturation, CPM assay. The class given is biochemical. The note with it: CMC+0.04 wt %, 40° C., 120 minutes. How it is done: CPM assay: AtBOR1 was concentrated to 10 mg/ml in a buffer (20 mM Tris-HCl (pH 7.5), 150 mM NaCl, 0.03% DDM) with a 100 kDa MWCO centrifugal filter, stored at −80° C. and thawed immediately prior to thermal stability analysis. […] A 7-diethylamino-3-(4′-maleimidylphenyl)-4-methylcoumarin (CPM) dye (Invitrogen) was dissolved in DMSO at 4 mg/ml, and was diluted 1:100 with a buffer (150 mM NaCl supplemented with 20 mM Tris-HCl (pH 7.5) and 0.03% DDM). After 3 μL of the CPM dye was added to each well in the dark, the plate was covered with a transparent lid and the cells were cultured at 40° C. for 120 minutes. Fluorescence emission was monitored every 5 minutes using SpectraMax M2 (Molecular Devices) with a […] of 387 nm and an emission wavelength of 463 nm. Fluorescence readings were normalized under the most unstable conditions to calculate the percentage of proteins that were relatively unfolded. Data was analyzed as a single exponential decay curve using GraphPad Prism 6.

T2 sequence (P42866 whole entry): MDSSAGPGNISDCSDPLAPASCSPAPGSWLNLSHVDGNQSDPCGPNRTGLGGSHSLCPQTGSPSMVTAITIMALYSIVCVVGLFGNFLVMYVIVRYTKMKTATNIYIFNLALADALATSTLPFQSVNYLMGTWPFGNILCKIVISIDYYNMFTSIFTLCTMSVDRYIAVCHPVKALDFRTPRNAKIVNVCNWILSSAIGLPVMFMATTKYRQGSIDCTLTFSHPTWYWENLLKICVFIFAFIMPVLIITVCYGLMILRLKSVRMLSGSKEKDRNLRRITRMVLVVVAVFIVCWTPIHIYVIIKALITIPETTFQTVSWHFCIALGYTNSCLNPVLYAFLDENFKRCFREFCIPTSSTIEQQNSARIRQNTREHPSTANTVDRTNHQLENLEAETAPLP
T1 sequence (P30878 whole entry): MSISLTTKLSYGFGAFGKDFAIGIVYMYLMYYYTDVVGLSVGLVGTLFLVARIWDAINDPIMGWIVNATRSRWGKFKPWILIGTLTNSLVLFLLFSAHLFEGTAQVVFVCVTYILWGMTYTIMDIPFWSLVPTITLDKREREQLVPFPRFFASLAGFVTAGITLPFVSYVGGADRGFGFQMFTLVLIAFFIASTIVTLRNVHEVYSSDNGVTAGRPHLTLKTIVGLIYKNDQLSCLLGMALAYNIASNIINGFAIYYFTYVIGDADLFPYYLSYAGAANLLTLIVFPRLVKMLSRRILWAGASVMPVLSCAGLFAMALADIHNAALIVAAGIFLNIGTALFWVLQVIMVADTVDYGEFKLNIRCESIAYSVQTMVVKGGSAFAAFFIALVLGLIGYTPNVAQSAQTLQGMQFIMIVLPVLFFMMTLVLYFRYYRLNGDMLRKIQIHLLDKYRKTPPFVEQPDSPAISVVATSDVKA
Chain of AtBOR1 (Q8VYR7 whole entry): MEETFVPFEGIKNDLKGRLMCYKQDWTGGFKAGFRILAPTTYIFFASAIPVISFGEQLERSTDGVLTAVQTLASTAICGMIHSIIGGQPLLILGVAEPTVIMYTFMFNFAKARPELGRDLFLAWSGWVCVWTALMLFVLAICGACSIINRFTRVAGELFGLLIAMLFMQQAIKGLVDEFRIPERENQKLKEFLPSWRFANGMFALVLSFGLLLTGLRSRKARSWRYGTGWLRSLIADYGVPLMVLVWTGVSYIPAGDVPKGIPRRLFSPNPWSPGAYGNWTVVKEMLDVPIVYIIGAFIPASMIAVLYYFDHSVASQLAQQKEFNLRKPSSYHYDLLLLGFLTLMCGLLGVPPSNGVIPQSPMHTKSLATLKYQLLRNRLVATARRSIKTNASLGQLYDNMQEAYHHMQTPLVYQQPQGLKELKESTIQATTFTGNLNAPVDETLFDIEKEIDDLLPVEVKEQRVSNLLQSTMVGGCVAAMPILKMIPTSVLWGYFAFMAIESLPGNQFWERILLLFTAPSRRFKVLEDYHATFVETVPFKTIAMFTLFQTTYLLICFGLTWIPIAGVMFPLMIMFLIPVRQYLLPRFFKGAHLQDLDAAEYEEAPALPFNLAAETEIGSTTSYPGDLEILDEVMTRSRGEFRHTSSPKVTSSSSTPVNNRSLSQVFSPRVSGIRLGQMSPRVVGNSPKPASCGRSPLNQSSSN

As to `CCCCCCCCCCCCO[C@@H]1O[C@H](CO)[C@@H](O[C@H]2O[C@H](CO)[C@@H](O)[C@H](O)[C@H]2O)[C@H](O)[C@H]1O` [DDM, n-dodecyl-β-D-maltopyranoside, reference compound], the “MelB protein extraction efficiency at 0° C.” value in data set [1] is on record as “high MelB protein extraction efficiency”. In [2], the solubility is reported as around 10%. The “Rh (nm)” value in data set [3] turned out to be 3.4 ± 0.03 nm. In addition, the “AtBOR1 thermal stability by FSEC (protein peak vs aggregation peak)” value in data set [4] is on record as “significant reduction in the original homogeneous protein peak”. For the same molecule, in data set [5], the “LeuT substrate binding properties over incubation” value is reported as “high initial activity, but the substrate binding ability sharply decreased with the passage of time”. Further, in [6], the “CMC” value is around 0.17 mM.
Consider `CCCCCCCCCCC(CCCCCCCCCC)(CO[C@@H]1O[C@H](CO)[C@@H](O[C@H]2O[C@H](CO)[C@@H](O)[C@H](O)[C@H]2O)[C@H](O)[C@H]1O)CO[C@@H]1O[C@H](CO)[C@@H](O[C@H]2O[C@H](CO)[C@@H](O)[C@H](O)[C@H]2O)[C@H](O)[C@H]1O` [LMNG], for which the “MOR melting point (Tm) of LMNG, comparison value” in data set [7] is 38.3 °C.
As for `CCCCCCCCCCOc1nc(OCCCCCCCCCC)nc(N(CCO[C@@H]2O[C@H](CO)[C@@H](O[C@H]3O[C@H](CO)[C@@H](O)[C@H](O)[C@H]3O)[C@H](O)[C@H]2O)CCO[C@@H]2O[C@H](CO)[C@@H](O[C@H]3O[C@H](CO)[C@@H](O)[C@H](O)[C@H]3O)[C@H](O)[C@H]2O)n1` [TEM-E10], the solubility in [2] was around 5%. Moreover, in data set [8], the “MOR melting point (Tm)” value was 48.0 °C. In addition, the “Rh (nm)” value in data set [3] is on record as 4.5 ± 0.1 nm. Moreover, the “ability to preserve AtBOR1 in the folded state (CPM)” value in data set [9] is given as “best performance”. Further, in data set [4], the “AtBOR1 thermal stability by FSEC (protein peak vs aggregation peak)” value is “highly effective in maintaining the initial state of the protein”. Further, the “LeuT substrate binding properties over incubation” value in [5] is recorded as “best substrate binding activity”. For the same molecule, in [6], the “CMC” value was around 0.005 mM.
